The subject of experiment [1] is murine epidermis. Put plainly: Epidermal DNA synthesis, [3H]-thymidine incorporation in vivo. Also noted: species or system mouse. The protocol:
To assess the effects of a topical β-glucocerebrosidase inhibitor, conduritol-B-epoxide (CBE) in epidermal DNA synthesis two slightly different dosage protocols have been employed. In all cases, mice were treated topically with 20 μl to 40 μl of 250 nmol/μl CBE bid for 2-5 days on the right flank. On the last day, the mice were injected intraperitoneally with ^3H-thymidine (1 μCi/G body weight) diluted 1:10 in 100-200 μl isotonic NaCl. After one hour the mice were sacrificed. Whole skin was excised and subcutaneous fascia and fat were removed by scraped. Skin samples were placed dermis side downward onto 10 mM EDTA in phosphate buffered saline (PBS-CMF; pH 7.4) and incubated at 37° C. for 40 min. The skin was blotted dry with a tissue and epidermis removed by scraping with a surgical blade. The epidermis was minced into small pieces and placed in microcentrifuge vials. Samples were immediately snap frozen and stored in liquid nitrogen until immediately prior to preparation of the epidermal homogenates. 300 μl of 10 mM EDTA in PBS-CMF (pH 7.4) was added to all samples which then underwent tissue homogenization using Polytron (15 sec, ×2 on ice. Polytron tip was rinsed between each homogenization with 400 μl 10 mM EDTA in PBS-CMF. Rinses were combined with same original samples. Samples were sonicated twice for 10 sec on ice. 100 μl of 20% TCA was added and left for 10 min at 4° C. Samples were centrifuged at 2000×g at 4° C. for 5 min. The supernatant was discarded. 500 μl of 5% TCA was added and the samples were centrifuged at 2000×g at 4° C. for 5 min. The supernatant was discarded and this step was repeated again. The precipitate was resuspended in 1ml of 1N NaOH and vortexed. 400 μl or NaOH plus 400 μl of 1N HCl with 8ml Ecolume was used as a background blank. Vials were counted the following day.
We next determined whether the topical administration of structurally similar but less efficient β-glucosidase inhibitors would induce epidermal hyperproliferation. Animals were treated topically twice daily with either Conduritol-B-epoxide, Conduritol B (CB), or deoxynojirimycin (dNJM), each at 40 μl of 250 nmol/μl twice daily, as described in Example 10. After 24 hours, [^3H]-thymidine was injected intraperitoneally and incorporation of thymidine into DNA was determined (FIG. 26 A&B). […] This reduced activity is a result of the relative availability of these inhibitors to in vivo tissues.
Animals were treated as described in Example 10.
We next determined whether occlusion with a vapor-impermeable membrane would enhance the effects of a β-glucocerebrosidase inhibitor on epidermal DNA synthesis. […] After 24 hrs animals were injected with [^3H]-thymidine, and incorporation into DNA was determined (Proksch, et. al., J. Clin. Invest. 87:1668-1673, 1991).
In general terms: Incorporation of labelled thymidine or its analogues reports DNA synthesis.

Experiment [2] relates to hairless mouse epidermis. Put plainly: Epidermal / stratum corneum lipid content (HPTLC/TLC). The experiment is classed as in vivo. On the procedure: Hairless mice were treated with BrCBE for 5 days as described in Example 10. The following high performance thin layer chromatograph (HPTLC) system was developed for optimal separation of ceramides and glucosylceramides for quantitation by spectrodensitometry. Extracts were applied to precleaned 10 ×20 cm HPTLC plates, 0.5 cm from lower edge of the plate and fractionated sequentially in a horizontal developmental chamber (Camag, Muttenz, Switzerland) in the following solvent systems: 1) chloroform:methanol:acetic acid (190:9:1), v/v/v) to the top, twice; 2) chloroform:methanol:acetone (76:20:4, by volume) to 30 mm. Between each development, the plate was dried for 5 minutes on a hot plate (40° C.), cooled for 2 minutes, and equilibrated in the tank with the solvents for 3 minutes. After final development, the plates were dried, cooled, dipped in charring solution (1.5% cupric sulfate in acetic acid:sulfuric acid:orthophosphoric acid:water (50:10:10:30, by volume) for 15 seconds, dried (40° .C) for 5 minutes, and then charred at 180° C. for 15 minutes. Plates were scanned with a variable wavelength scanning densitometer (Camag, Muttenz, Switzerland). Lipid amounts for each fraction were estimated using ceramides 3 and 4, and galactosylceramides 1 and 2 as reference standards (Sigma Chemical Co., St. Louis, Mo.).
The epidermal glucosylceramide content was determined in mice treated with the topical β-glucocerebrosidase inhibitors. Mice were treated with CBE for one day as described in FIG. 22. The mice were sacrificed and whole skin was excised. Subcutaneous fascia and fat were scraped off, and the samples were placed dermis side down onto […] EDTA in PBS-CMF (pH 7.4) and incubated at 37° C. for 40 min. Skin was blotted dry with a tissue and the epidermis was removed by scraping with a surgical blade. The epidermis was minced, placed into microcentrifuge vials, immediately snap frozen and stored in liquid N2 until extracted.
For extraction the tissue was soaked in 7.6 ml Bligh/Dyer extraction media (2 ml chloroform, 4 ml Methanol, 1.6 ml H2O) overnight at room temperature. The following day the tissue was shaken for 20 min. and centrifuged for 10 min. the solvent was removed and the pellet was combined with 7.6 ml Bligh/Dyer media and again shaken and centrifuged. The solvents were combined with solvent from the soaks and filtered through pre-solvent-washed Whatman 43 filter paper, 2 ml chloroform and 2 ml H2O was added to each 7.6 ml quantity of the filtrate and shaken for 10 min. The samples were then centrifuged and the upper phase discarded. The lower phase was washed with 4 ml chloroform, 4 ml MetOH, and 3.6 ml H2O (shaken for 10 min and centrifuged). The upper phase was discarded. The lower phase was dried under N2 in a 47° C. water bath. The lipid was resuspended in chloroform and weighed on the Cahn balance.
TLC was performed using 15-20 μg samples and quantitated against standard glycosylceramide and 40 μg sample for sphingolipids (Holleran, W. M. et al. (1993) J. Clin. Invest. 91:1656-1664).
Both glucosylceramide and ceramide content was then determined in lower (stratum basale) and upper (stratum spinosum, stratum granulosum and stratum corneum) epidermis (FIG. 23). Following 24 hours of CBE treatment samples were excised following treatment (as in Example 16).

[3] abbreviates: one day of CBE treatment, FIG. 23.

As to `O[C@H]1[C@H](O)[C@@H](O)[C@@H]2O[C@@H]2[C@@H]1O` (racemic) [CBE, conduritol-B-epoxide], the “DNA synthesis, CBE, GlcCER and occlusion” value in experiment [1] (latex wrap, 24 hrs) was “increased DNA synthesis”. The “epidermal DNA synthesis ([3H]-thymidine incorporation)” value in experiment [1] (topical 40 μl of 250 nmol/μl twice daily, after 24 hours) was “potent stimulation”. In addition, the “DNA synthesis rates, CBE+occlusion vs CBE alone” value in experiment [1] (water-vapor impermeable latex wrap, 24 hrs, 4 separate studies) is “equivalent or higher”. Also, in experiment [2] (20 μl of 250 nmol/μl CBE tid x5d, 250 mm^2 skin sample), the “level of glucosylceramide, higher in treated samples” value is recorded as 34-147%. The “level of glucosylceramide, higher in treated samples” value in experiment [2] (40 μl of 250 nmol/μl CBE tid x3d, 500 mm^2 skin sample) is 57-152%. In addition, in experiment [2] (one day of CBE application, FIG. 22), the epidermal glucosylceramide content result is recorded as “invariably increased”. Besides, in experiment [2] (setting [3]), the “ceramide levels of upper and lower epidermis” value is “not significantly altered”; the “glucosylceramide content of upper and lower epidermis” value is listed as “significant increase”.

The values are drawn from patent publication US6399580B1, “Methods and compositions for stimulating tissue growth and epithelial moisturization” (The Regents of the University of California, priority 1994, dated 2002).
